Where two headings read alike, the source gives them in different places.
How the values were obtained:
[1] = design: method as in PMID 10702882; settings: human healthy male, single dose 100 mg of cilostazol, cited from earlier work
[2] = Electron spin resonance (ESR) radical scavenging; settings: ESR experiments, data not shown
Description: In the photothrombotic cerebral infarction model, photoactivation of rose bengal by illumination with green light results in reactive oxygen intermediates (predominantly singlet oxygen and superoxide). […] Therefore, we concluded that the observed inhibitory effects of K-134 on photothrombosis in this model are relevant to its antiplatelet activity but not radical scavenging activity.

[3] = Pharmacokinetics of cilostazol and its active metabolites in rats; assay type: in vivo, rat; settings: single oral cilostazol 300 mg/kg, non-fasting male SD rats, n = 3; parent and metabolites
Procedure: Pharmacokinetic variables (Cmax, AUC, Tmax and T1/2) were calculated from the plasma drug concentration-time curve. Cilostazol was orally administered to rats under non-fasting conditions at a single dose of 300 mg/kg to determine the concentration-time profile in serum (n = 3). Values are means (± SEM). […]

platelets = system: platelets; design: method as in earlier work; settings: cited from earlier work
[4] = converted from µg/L, read-out: Cmax

| AUC0-24h [3] | Cmax [3] | T1/2 [3] | Tmax [3] | Structure (SMILES) | Cmax [1, 4] | AUC0–72 h ([1]; converted from µg/L·h) | AUC0–72 h [1] | Cmax [1] | scavenging activities against singlet oxygen and superoxide anion radical [2] | antiplatelet activity, times more potent than cilostazol (platelets) | antiplatelet activity, times less potent than cilostazol (platelets) |
| --- | --- | --- | --- | --- | --- | --- | --- | --- | --- | --- | --- |
| 18.3 µM·h | 1400 nM | 6.8 h | 3.2 h | O=c1ccc2cc(OCCCCc3nnnn3C3CCCCC3)ccc2[nH]1 [OPC-13015] | 330 nM | 6.59 µM·h | ~2423 ng·h/mL | ~122 ng/mL | did not show scavenging activities | 3 times |  |
| 127.3 µM·h | 9100 nM | 6.1 h |  | O=C1CCc2cc(OCCCCc3nnnn3C3CCC(O)CC3)ccc2N1 (stereo not drawn) [OPC-13213] | 170 nM | 1.60 µM·h | ~617 ng·h/mL | ~64 ng/mL |  |  | 3 times |

Source: PMC3479105, “K-134, a Phosphodiesterase 3 Inhibitor, Prevents Brain Damage by Inhibiting Thrombus Formation in a Rat Cerebral Infarction Model” (PLoS ONE, 2012)
